Columns and labels:
Assay in all cases: KINOMEscan competition binding
Conditions in all cases: compound 10.0 µM; call rule not given here
EPHA8 (human) = EPHA8 (human) (UniProt P29322)
MARK2 (human) = MARK2 (human) (UniProt Q7KZI7)
DAPK3 (human) = DAPK3 (human) (UniProt O43293)
ACVR1B (human) = ACVR1B (human) (UniProt P36896)
AKT2 (human) = AKT2 (human) (UniProt P31751)
CDK16 (human) = CDK16 (human) (UniProt Q00536)
CDK5 (human) = CDK5 (human) (UniProt Q00535)
RAF1 (human) = RAF1 (human) (UniProt P04049)
AXL (human) = AXL (human) (UniProt P30530)
ABL2 (human) = ABL2 (human) (UniProt P42684)
TNNI3K (human) = TNNI3K (human) (UniProt Q59H18)
CSNK2A2 (human) = CSNK2A2 (human) (UniProt P19784)
STK24 (human) = STK24 (human) (UniProt Q9Y6E0)
PHKG1 (human) = PHKG1 (human) (UniProt Q16816)
TEK (human) = TEK (human) (UniProt Q02763)
RPS6KA5 KD1 (human) = RPS6KA5 KD1 (human) (UniProt O75582)
EPHA1 (human) = EPHA1 (human) (UniProt P21709)
FGFR2 (human) = FGFR2 (human) (UniProt P21802)
EPHA6 (human) = EPHA6 (human) (UniProt Q9UF33)
FYN (human) = FYN (human) (UniProt P06241)
STK10 (human) = STK10 (human) (UniProt O94804)
NLK (human) = NLK (human) (UniProt Q9UBE8)
CSNK2A1 (human) = CSNK2A1 (human) (UniProt P68400)
BRAF (human) = BRAF (human) (UniProt P15056)
MAP4K4 (human) = MAP4K4 (human) (UniProt O95819)
KIT (human) = KIT (human) (UniProt P10721)
CSNK1E (human) = CSNK1E (human) (UniProt P49674)
TYRO3 (human) = TYRO3 (human) (UniProt Q06418)
PRKCH (human) = PRKCH (human) (UniProt P24723)
PAK2 (human) = PAK2 (human) (UniProt Q13177)
PDPK1 (human) = PDPK1 (human) (UniProt O15530)
FLT4 (human) = FLT4 (human) (UniProt P35916)
MAP4K3 (human) = MAP4K3 (human) (UniProt Q8IVH8)
ACVR1 (human) = ACVR1 (human) (UniProt Q04771)
PIM2 (human) = PIM2 (human) (UniProt Q9P1W9)
MAPK8 (human) = MAPK8 (human) (UniProt P45983)
ADCK4 (human) = ADCK4 (human) (UniProt Q96D53)
MST4 (human) = MST4 (human) (UniProt Q9P289)
PDGFRB (human) = PDGFRB (human) (UniProt P09619)
CAMK1D (human) = CAMK1D (human) (UniProt Q8IU85)
CAMK1D (human), sequence (Q8IU85 whole entry, looked up): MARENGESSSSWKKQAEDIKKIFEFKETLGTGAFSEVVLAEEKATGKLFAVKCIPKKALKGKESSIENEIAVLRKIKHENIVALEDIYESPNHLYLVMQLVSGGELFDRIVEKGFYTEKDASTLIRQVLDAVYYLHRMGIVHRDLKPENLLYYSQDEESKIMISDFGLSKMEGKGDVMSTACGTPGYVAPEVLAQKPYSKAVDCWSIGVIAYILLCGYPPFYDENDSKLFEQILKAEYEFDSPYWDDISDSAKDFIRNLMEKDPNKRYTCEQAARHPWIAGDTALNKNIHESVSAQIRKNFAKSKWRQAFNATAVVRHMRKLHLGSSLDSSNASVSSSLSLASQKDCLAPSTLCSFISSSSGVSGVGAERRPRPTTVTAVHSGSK

FLT4 (human), sequence (P35916 whole entry, looked up): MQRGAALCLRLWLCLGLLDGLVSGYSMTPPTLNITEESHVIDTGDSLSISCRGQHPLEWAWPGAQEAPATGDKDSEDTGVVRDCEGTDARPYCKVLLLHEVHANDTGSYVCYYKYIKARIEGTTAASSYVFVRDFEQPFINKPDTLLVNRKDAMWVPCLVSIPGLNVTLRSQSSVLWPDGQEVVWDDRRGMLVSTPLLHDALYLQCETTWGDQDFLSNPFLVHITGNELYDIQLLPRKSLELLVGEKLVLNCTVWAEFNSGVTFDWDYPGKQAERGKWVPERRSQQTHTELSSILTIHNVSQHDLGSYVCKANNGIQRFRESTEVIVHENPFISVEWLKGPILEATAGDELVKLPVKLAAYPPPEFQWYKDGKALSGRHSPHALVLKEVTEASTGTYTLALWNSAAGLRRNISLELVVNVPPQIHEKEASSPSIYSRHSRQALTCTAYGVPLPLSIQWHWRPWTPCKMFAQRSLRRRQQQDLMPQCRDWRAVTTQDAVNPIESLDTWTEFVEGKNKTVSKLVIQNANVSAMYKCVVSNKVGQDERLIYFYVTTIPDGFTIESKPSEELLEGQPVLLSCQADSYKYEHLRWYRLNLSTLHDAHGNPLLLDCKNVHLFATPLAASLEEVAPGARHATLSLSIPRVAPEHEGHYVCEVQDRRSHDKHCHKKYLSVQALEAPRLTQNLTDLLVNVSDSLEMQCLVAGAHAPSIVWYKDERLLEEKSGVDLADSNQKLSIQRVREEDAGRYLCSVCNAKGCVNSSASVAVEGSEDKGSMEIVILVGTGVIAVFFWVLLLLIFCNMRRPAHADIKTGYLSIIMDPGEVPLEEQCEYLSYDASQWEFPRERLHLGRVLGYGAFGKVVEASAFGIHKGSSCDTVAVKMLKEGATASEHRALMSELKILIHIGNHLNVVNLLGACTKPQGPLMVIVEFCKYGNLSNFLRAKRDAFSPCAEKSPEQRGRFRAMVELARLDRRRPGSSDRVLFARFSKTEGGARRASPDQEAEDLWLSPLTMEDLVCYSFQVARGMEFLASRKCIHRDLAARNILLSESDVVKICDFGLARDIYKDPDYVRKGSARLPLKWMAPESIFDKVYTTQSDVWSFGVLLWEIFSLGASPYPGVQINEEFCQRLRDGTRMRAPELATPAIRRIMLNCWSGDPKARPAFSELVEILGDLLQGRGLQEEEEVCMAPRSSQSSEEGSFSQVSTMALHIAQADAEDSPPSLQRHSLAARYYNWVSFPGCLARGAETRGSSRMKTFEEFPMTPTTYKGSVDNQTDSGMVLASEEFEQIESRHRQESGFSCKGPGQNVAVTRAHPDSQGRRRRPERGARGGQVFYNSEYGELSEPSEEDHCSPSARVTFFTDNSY
RAF1 (human), sequence (P04049 whole entry, looked up): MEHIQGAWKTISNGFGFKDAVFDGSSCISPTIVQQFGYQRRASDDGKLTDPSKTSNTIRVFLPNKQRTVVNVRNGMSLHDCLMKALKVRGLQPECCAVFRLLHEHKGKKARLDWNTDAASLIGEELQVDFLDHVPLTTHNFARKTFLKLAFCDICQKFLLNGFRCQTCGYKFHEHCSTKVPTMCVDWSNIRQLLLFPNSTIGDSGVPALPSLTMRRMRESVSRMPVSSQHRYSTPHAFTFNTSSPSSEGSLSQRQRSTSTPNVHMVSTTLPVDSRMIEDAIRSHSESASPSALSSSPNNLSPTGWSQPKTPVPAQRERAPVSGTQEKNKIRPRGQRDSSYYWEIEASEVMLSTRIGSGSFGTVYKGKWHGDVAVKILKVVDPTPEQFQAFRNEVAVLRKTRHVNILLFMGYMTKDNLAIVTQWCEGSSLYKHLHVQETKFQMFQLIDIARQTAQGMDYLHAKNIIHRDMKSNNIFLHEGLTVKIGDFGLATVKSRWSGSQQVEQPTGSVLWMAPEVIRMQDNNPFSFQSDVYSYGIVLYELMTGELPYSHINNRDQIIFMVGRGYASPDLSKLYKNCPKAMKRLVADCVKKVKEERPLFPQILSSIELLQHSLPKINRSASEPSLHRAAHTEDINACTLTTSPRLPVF
KIT (human), sequence (P10721 whole entry, looked up): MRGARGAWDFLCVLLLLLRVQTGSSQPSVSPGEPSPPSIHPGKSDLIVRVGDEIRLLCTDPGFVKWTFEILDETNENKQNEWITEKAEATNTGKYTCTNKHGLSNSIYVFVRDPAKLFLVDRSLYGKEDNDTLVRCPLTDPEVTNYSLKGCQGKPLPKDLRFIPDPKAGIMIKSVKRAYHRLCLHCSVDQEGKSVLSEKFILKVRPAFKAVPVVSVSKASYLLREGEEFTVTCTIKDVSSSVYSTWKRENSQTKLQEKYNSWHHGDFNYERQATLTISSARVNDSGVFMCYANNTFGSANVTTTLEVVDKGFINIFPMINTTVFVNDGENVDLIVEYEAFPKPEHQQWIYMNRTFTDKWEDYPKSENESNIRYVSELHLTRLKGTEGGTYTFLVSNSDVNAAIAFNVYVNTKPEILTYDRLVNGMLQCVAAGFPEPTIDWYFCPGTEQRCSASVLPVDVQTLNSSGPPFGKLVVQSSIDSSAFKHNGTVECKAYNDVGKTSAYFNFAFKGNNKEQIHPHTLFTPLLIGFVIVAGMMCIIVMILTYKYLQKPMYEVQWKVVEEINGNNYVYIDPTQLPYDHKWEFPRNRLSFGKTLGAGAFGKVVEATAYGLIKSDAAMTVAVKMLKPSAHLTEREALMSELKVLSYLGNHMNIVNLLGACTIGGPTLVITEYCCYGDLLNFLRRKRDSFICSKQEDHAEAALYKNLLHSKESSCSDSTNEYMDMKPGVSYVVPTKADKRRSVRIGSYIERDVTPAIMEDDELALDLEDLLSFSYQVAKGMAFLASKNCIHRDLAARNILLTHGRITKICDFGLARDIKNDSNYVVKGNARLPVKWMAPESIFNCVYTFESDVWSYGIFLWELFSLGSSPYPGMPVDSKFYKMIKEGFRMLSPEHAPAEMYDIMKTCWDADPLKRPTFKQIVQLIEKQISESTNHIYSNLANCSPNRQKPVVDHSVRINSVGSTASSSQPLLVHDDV
ADCK4 (human), sequence (Q96D53 whole entry, looked up): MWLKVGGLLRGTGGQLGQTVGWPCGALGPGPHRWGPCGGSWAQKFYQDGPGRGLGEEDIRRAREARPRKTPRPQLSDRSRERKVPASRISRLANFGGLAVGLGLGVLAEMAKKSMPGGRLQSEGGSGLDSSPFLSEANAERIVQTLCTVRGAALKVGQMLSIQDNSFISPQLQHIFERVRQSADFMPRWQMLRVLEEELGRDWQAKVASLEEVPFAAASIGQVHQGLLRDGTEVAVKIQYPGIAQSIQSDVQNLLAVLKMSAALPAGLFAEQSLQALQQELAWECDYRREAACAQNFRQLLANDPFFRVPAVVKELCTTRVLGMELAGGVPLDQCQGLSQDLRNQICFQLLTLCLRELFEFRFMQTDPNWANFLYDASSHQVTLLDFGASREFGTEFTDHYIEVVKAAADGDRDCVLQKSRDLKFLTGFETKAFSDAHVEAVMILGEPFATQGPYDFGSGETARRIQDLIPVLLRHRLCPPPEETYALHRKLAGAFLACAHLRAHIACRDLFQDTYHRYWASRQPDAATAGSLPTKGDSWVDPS
PHKG1 (human), sequence (Q16816 whole entry, looked up): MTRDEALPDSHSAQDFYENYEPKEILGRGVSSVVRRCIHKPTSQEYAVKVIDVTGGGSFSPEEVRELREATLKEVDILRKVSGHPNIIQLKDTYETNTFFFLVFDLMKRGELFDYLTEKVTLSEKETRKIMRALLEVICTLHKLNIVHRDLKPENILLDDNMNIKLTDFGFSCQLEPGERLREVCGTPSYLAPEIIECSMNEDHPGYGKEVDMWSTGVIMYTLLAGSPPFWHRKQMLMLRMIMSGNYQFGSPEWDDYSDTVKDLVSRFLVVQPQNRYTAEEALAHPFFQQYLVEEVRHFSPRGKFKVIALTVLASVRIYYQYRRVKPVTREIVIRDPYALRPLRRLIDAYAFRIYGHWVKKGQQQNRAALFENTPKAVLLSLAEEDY
STK24 (human), sequence (Q9Y6E0 whole entry, looked up): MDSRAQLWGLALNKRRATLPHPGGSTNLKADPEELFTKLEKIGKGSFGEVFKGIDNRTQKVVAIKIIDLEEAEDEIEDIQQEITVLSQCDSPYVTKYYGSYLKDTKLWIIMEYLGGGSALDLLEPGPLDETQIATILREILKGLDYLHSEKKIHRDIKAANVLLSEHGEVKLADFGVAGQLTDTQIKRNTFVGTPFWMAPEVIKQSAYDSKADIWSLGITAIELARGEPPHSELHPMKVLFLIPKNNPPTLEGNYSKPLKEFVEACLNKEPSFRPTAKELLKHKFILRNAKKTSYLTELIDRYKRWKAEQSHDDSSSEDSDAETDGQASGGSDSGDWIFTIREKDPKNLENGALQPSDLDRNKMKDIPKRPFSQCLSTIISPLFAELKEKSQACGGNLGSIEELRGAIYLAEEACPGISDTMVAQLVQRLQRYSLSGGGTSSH
CDK5 (human), sequence (Q00535 whole entry, looked up): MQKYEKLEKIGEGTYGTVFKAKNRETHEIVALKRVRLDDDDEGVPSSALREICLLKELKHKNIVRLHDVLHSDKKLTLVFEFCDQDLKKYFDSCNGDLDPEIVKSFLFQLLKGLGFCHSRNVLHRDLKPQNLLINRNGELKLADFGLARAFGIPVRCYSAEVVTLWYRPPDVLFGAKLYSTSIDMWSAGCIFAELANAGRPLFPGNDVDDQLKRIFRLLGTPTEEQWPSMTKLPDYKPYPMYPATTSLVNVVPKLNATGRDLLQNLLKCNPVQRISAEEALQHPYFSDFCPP

How did the kinase still bound, per cent of control (EPHA8 (human)) turn out when `CCS(=O)(=O)Nc1ccc2c(c1)[C@H](/C(=N/c1ccc(CN3CCCCC3)cc1)c1ccccc1)C(=O)N2` was run?
Its kinase still bound, per cent of control is 0.4%.

What about the kinase still bound, per cent of control (MARK2 (human)) of the same molecule?
Its kinase still bound, per cent of control is 0.3%.

What about the kinase still bound, per cent of control (DAPK3 (human)) of the same molecule?
The kinase still bound, per cent of control was 2.1%.

And the kinase still bound, per cent of control (ACVR1B (human))?
The kinase still bound, per cent of control was 2%.

What about the “kinase still bound, per cent of control” value (AKT2 (human)) of the same molecule?
Its value is “no effect (inactive)”.

What about the kinase still bound, per cent of control (CDK16 (human)) of the same molecule?
Its kinase still bound, per cent of control is 0%.

And the kinase still bound, per cent of control (CDK5 (human))?
Its kinase still bound, per cent of control is 16.8%.

What about the “kinase still bound, per cent of control” value (RAF1 (human)) of the same molecule?
The value was “no effect (inactive)”.

And the kinase still bound, per cent of control (AXL (human))?
The kinase still bound, per cent of control was 0%.

And the kinase still bound, per cent of control (ABL2 (human))?
Its kinase still bound, per cent of control is 4.8%.

What about the kinase still bound, per cent of control (TNNI3K (human)) of the same molecule?
The kinase still bound, per cent of control was 7.6%.

What about the kinase still bound, per cent of control (CSNK2A2 (human)) of the same molecule?
Its kinase still bound, per cent of control is 0%.

And the kinase still bound, per cent of control (STK24 (human))?
The kinase still bound, per cent of control was 0.1%.

What about the kinase still bound, per cent of control (PHKG1 (human)) of the same molecule?
The kinase still bound, per cent of control was 0.1%.

And the kinase still bound, per cent of control (TEK (human))?
Its kinase still bound, per cent of control is 0.4%.

What about the kinase still bound, per cent of control (RPS6KA5 KD1 (human)) of the same molecule?
The kinase still bound, per cent of control was 0%.

And the kinase still bound, per cent of control (EPHA1 (human))?
Its kinase still bound, per cent of control is 0.2%.

What about the kinase still bound, per cent of control (FGFR2 (human)) of the same molecule?
The kinase still bound, per cent of control was 0.1%.

And the kinase still bound, per cent of control (EPHA6 (human))?
The kinase still bound, per cent of control was 0%.

And the kinase still bound, per cent of control (FYN (human))?
Its kinase still bound, per cent of control is 0%.

What about the kinase still bound, per cent of control (STK10 (human)) of the same molecule?
Its kinase still bound, per cent of control is 0%.

What about the “kinase still bound, per cent of control” value (NLK (human)) of the same molecule?
The value was “no effect (inactive)”.

And the kinase still bound, per cent of control (CSNK2A1 (human))?
Its kinase still bound, per cent of control is 0%.

What about the “kinase still bound, per cent of control” value (BRAF (human)) of the same molecule?
The value was “no effect (inactive)”.

And the kinase still bound, per cent of control (MAP4K4 (human))?
Its kinase still bound, per cent of control is 0.25%.

And the kinase still bound, per cent of control (KIT (human))?
The kinase still bound, per cent of control was 0.1%.

And the kinase still bound, per cent of control (CSNK1E (human))?
Its kinase still bound, per cent of control is 2.4%.

What about the kinase still bound, per cent of control (TYRO3 (human)) of the same molecule?
The kinase still bound, per cent of control was 0.2%.

And the kinase still bound, per cent of control (PRKCH (human))?
Its kinase still bound, per cent of control is 19.2%.

And the “kinase still bound, per cent of control” value (PAK2 (human))?
Its value is “no effect (inactive)”.

What about the kinase still bound, per cent of control (PDPK1 (human)) of the same molecule?
Its kinase still bound, per cent of control is 5.8%.

And the kinase still bound, per cent of control (FLT4 (human))?
Its kinase still bound, per cent of control is 0.1%.

What about the kinase still bound, per cent of control (MAP4K3 (human)) of the same molecule?
Its kinase still bound, per cent of control is 0.1%.

What about the kinase still bound, per cent of control (ACVR1 (human)) of the same molecule?
The kinase still bound, per cent of control was 0.1%.

And the “kinase still bound, per cent of control” value (PIM2 (human))?
The value was “no effect (inactive)”.

And the kinase still bound, per cent of control (MAPK8 (human))?
Its kinase still bound, per cent of control is 0%.

And the “kinase still bound, per cent of control” value (ADCK4 (human))?
The value was “no effect (inactive)”.

And the kinase still bound, per cent of control (MST4 (human))?
The kinase still bound, per cent of control was 17.2%.

What about the kinase still bound, per cent of control (PDGFRB (human)) of the same molecule?
The kinase still bound, per cent of control was 0%.

And the kinase still bound, per cent of control (CAMK1D (human))?
Its kinase still bound, per cent of control is 0.7%.

Source: the kinase profiling compilation of Christmann-Franck et al. (2016)
